Test system: amyloid-beta (1-42) peptide
Assay: ELISA assay of amyloid-beta (1-42) in conditioned media of 2B7 cells
Type: cell-based
Settings: for inhibition at 10 µM: Aβ-42, 10 umol/L; for inhibition at 10 µM / inhibition at 100 µM / inhibition at 20 µM: read-out: % Inhibition (range)
Experimental: Compounds of the present invention, and extracts comprising said compounds, may be assayed as inhibitors of amyloid-beta (1-42) peptide in vitro or in vivo. Such assay methods are described in detail in U.S. Pat. No. 6,649,196, the entirety of which is hereby incorporated herein by reference.
In certain embodiments, provided compounds of the present invention, and extracts comprising said compounds, were assayed as inhibitors of amyloid-beta (1-42) peptide in vitro using an ELISA assay.
Capture Plate Prep: • 6E10 was diluted to 5.0 ug/mL in 100 mM NaHCO3 pH 8.2 (10 ug aliquot per 2 mL buffer); • 100 uL capture antibody solution was added to wells of 96 well plate; • Incubated overnight at 4° C. sealed; • Aspirated off capture antibody; and • Blocked with 250 uL of Blocking Buffer for 2-4 hours at rt sealed.
Conditioned Media: • Cultured 2B7 cells in 96 well plate with 250 uL of media per well until confluent; • Prepared serial dilution of compounds in DMSO at 100× the final desired concentration; • Washed wells with 2B7 cells lx with 250 uL of media; • Diluted DMSO stocks 1:100 into media and mix; and • Added 250 μL of media containing compounds (1% DMSO) to wells with 2B7 cells for 5 hours at 37° C.
Elisa Sample Prep: • Diluted conditioned media 1:2 into blocking buffer; • NOTE: If assaying for A-Beta 1-40 or total A-Beta, then diluted above sample 1:10 with a 50/50 mixture of non-conditioned media containing 1% DMSO and blocking buffer.
Standard Curve Sample Prep: • Diluted appropriate A-Beta peptide stock (stored in 1% NH4OH) to 200 μg/mL in blocking buffer; • Prepared a 1:2 serial dilution from the 200 μg/mL sample (150 μL into 150 μL blocking buffer); and • Added equal volume of standard curve samples to non-conditioned media with 1% DMSO.
Overnight Sample Incubation: • Aspirated blocking buffer from blocked plate; • Added 100 μL of samples to wells of plate (samples will be 50% media with 1% DMSO and 50% blocking buffer; and • Incubated overnight at 4° C. sealed.
Addition of Detection Antibody: • Aspirated off samples, wash 2× with 250 μL blocking buffer; and • Added 100 μL detection antibody labeled with HRP at 0.25 ug/mL in blocking buffer for 4 hours at room temperature sealed.
Final Wash and Readout: • Aspirated wells, wash 5× with 250 μL of PBS-T (2 minutes each wash at 30 RPM); • Added 100 μL TMB for 20 minutes; • Added 100 μL of 1M H3PO4; and • Read at 450 nm.
Coating Buffer (100 mM NaHCO3 pH 8.2)
PBS-T (PBS with 0.05% Tween-20)
Blocking Buffer (1% BSA in PBS-T)

Row | Compound | % Inhibition (range) (Aβ-42, 20 umol/L) | % Inhibition (range) (Aβ-42, 100 umol/L) | further results
1 | CC(=O)O[C@@H]([C@H]1C[C@@H](C)C2=C(O1)C(=O)[C@@]1(C)[C@@H]3CC[C@H]4C(C)(C)C(=O)CC[C@@]45C[C@@]35CC[C@]21C)C(C)(C)O | – | – | inhibition at 10 µM: < 25%
2 | CC(=O)O[C@H]1CC[C@]23C[C@]24CC[C@]2(C)C5C(C[C@@]2(C)C4CCC3C1(C)C)OC(C(F)(F)F)=C[C@H]5C (stereo partly drawn) | – | – | inhibition at 10 µM: < 25%
3 | CC1COC2C[C@H]3[C@@H]4CCC5C[C@@H](O)CC[C@]5(C)[C@H]4CC[C@]3(C)C2[C@@H]1C (stereo partly drawn) | – | – | inhibition at 10 µM: < 25%
4 | C[C@@H]1C=C(C(F)(F)F)OC2C[C@@]3(C)C4CCC5C(C)(C)[C@@H](O)CC[C@@]56C[C@@]46CC[C@]3(C)C21 (stereo partly drawn) | – | – | inhibition at 10 µM: 25 to 75%
5 | CCC(=O)O[C@@H]([C@H]1C[C@@H](C)C2C(O1)C(N)[C@@]1(C)[C@@H]3CC[C@H]4C(C)(C)[C@@H](O)CC[C@@]45C[C@@]35CC[C@]21C)C(C)(C)O (stereo partly drawn) | – | – | inhibition at 100 µM (Aβ-42, 100 umol/L): 25 to 75%
6 | CC(=O)O[C@@H]([C@H]1C[C@@H](C)C2=C(O1)[C@H](O[Si](C)(C)C(C)(C)C)[C@@]1(C)[C@@H]3CC[C@H]4C(C)(C)[C@H](N)CC[C@@]45C[C@@]35CC[C@]21C)C(C)(C)O | – | – | inhibition at 100 µM (Aβ-42, 100 umol/L): < 25%
7 | C[C@@H]1C[C@H](C=O)OC2C1[C@@]1(C)CC[C@@]34C[C@@]35CC[C@H](O)C(C)(C)[C@@H]5CC[C@H]4[C@]1(C)[C@H]2O (stereo partly drawn) | – | – | inhibition at 100 µM (Aβ-42, 100 umol/L): < 25%
8 | C[C@@H]1C[C@H](CO)OC2C1[C@@]1(C)CC[C@@]34C[C@@]35CC[C@H](O)C(C)(C)[C@@H]5CC[C@H]4[C@]1(C)[C@H]2O (stereo partly drawn) | – | – | inhibition at 100 µM (Aβ-42, 100 umol/L): < 25%
9 | C[C@@H]1C[C@H](C(=O)C(C)(C)O)OC2C1[C@@]1(C)CC[C@@]34C[C@@]35CC[C@H](O)C(C)(C)[C@@H]5CC[C@H]4[C@]1(C)[C@H]2O (stereo partly drawn) | – | – | inhibition at 20 µM (Aβ-42, 20 umol/L): < 25%
10 | C[C@@H]1C[C@H]([C@H](OC(N)=O)C(C)(C)O)OC2C1[C@@]1(C)CC[C@@]34C[C@@]35CC[C@H](O)C(C)(C)[C@@H]5CC[C@H]4[C@]1(C)[C@H]2O (stereo partly drawn) | – | – | inhibition at 20 µM (Aβ-42, 20 umol/L): 25 to 75%
11 | CC(=O)/C=C/[C@H]1C[C@@H](C)C2C(O1)[C@H](O)[C@@]1(C)[C@@H]3CC[C@H]4C(C)(C)[C@@H](O)CC[C@@]45C[C@@]35CC[C@]21C (stereo partly drawn) | – | – | inhibition at 20 µM (Aβ-42, 20 umol/L): < 25%
12 | CC(=O)CCC1C[C@@H](C)C2C(O1)[C@H](O)[C@@]1(C)[C@@H]3CC[C@H]4C(C)(C)[C@@H](O)CC[C@@]45C[C@@]35CC[C@]21C (stereo partly drawn) | – | – | inhibition at 20 µM (Aβ-42, 20 umol/L): < 25%
13 | CC(=O)O[C@@H]([C@H]1C[C@@H](C)C2C(O1)[C@H](O)[C@@]1(C)[C@@H]3CC[C@H]4C(C)(C)C(=O)CC[C@@]45C[C@@]35CC[C@]21C)C(C)(C)O (stereo partly drawn) | – | – | inhibition at 100 µM (Aβ-42, 100 umol/L): 25 to 75%
14 | CC(=O)O[C@@H]([C@H]1C[C@@H](C)C2C(O1)[C@H](O)[C@@]1(C)[C@@H]3CC[C@H]4C(C)(C)[C@H](N)CC[C@@]45C[C@@]35CC[C@]21C)C(C)(C)O (stereo partly drawn) | – | – | inhibition at 100 µM (Aβ-42, 100 umol/L): 25 to 75%
15 | CC(=O)O[C@@H]([C@H]1C[C@@H](C)C2C(O1)[C@H](O)[C@@]1(C)[C@@H]3CC[C@H]4C(C)(C)[C@H](N5CCOCC5)CC[C@@]45C[C@@]35CC[C@]21C)C(C)(C)O (stereo partly drawn) | – | – | inhibition at 100 µM (Aβ-42, 100 umol/L): < 25%
16 | CC(=O)O[C@@H]([C@H]1C[C@@H](C)C2C(O1)[C@H](OC(N)=O)[C@@]1(C)[C@@H]3CC[C@H]4C(C)(C)[C@@H](OC(N)=O)CC[C@@]45C[C@@]35CC[C@]21C)C(C)(C)O (stereo partly drawn) | – | – | inhibition at 20 µM (Aβ-42, 20 umol/L): < 25%
17 | CC1CC(C(O)C(C)(C)O)OC2C1C1(C)CCC34CC35CCC(OC3CN(C(=O)c6cc(F)cc(F)c6)CCO3)C(C)(C)C5CCC4C1(C)C2O (stereo not drawn) | E E (% inhibition of 25-75%) | E E (% inhibition of 25-75%) | –
18 | CC1CC(C(O)C(C)(C)O)OC2C1C1(C)CCC34CC35CCC(OC3CN(CCCC(=O)O)CCO3)C(C)(C)C5CCC4C1(C)C2O (stereo not drawn) | E E (% inhibition of 25-75%) | E E (% inhibition of 25-75%) | IC50 (Aβ-42, 2B7 cells, 5 hours, read-out: IC50 range): > 10 µM

Row | Compound | % Inhibition (range) (Aβ-42, 20 umol/L) | % Inhibition (range) (Aβ-42, 100 umol/L) | further results
19 | CC1CC(C(O)C(C)(C)O)OC2C1C1(C)CCC34CC35CCC(OC3CN(CCC(=O)O)CCO3)C(C)(C)C5CCC4C1(C)C2O (stereo not drawn) | E E (% inhibition of 25-75%) | E E (% inhibition of 25-75%) | –
20 | CC1CC(C(O)C(C)(C)O)OC2C1C1(C)CCC34CC35CCC(OC3CN(C(=O)C6CCOCC6)CCO3)C(C)(C)C5CCC4C1(C)C2O (stereo not drawn) | E (% inhibition of 25-75%) | – | –
21 | CC1CC(C(O)C(C)(C)O)OC2C1C1(C)CCC34CC35CCC(OC3CN(C(=O)Cc6cccnc6)CCO3)C(C)(C)C5CCC4C1(C)C2O (stereo not drawn) | – | F (% inhibition of <25%) | –
22 | CC1CC(C(O)C(C)(C)O)OC2C1C1(C)CCC34CC35CCC(OC3CN(C(=O)Cc6ccccn6)CCO3)C(C)(C)C5CCC4C1(C)C2O (stereo not drawn) | – | F (% inhibition of <25%) | –
23 | CC1CC(C(O)C(C)(C)O)OC2C1C1(C)CCC34CC35CCC(OC3CN(C(=O)Cc6ccncc6)CCO3)C(C)(C)C5CCC4C1(C)C2O (stereo not drawn) | – | F (% inhibition of <25%) | –
24 | CC1CC(C(O)C(C)(C)O)OC2C1C1(C)CCC34CC35CCC(OC3CN(C(=O)c6cccnc6)CCO3)C(C)(C)C5CCC4C1(C)C2O (stereo not drawn) | – | F (% inhibition of <25%) | –
25 | CC1CC(C(O)C(C)(C)O)OC2C1C1(C)CCC34CC35CCC(OC3CN(C(=O)c6ccncc6)CCO3)C(C)(C)C5CCC4C1(C)C2O (stereo not drawn) | E E (% inhibition of 25-75%) | E E (% inhibition of 25-75%) | –
26 | CC1CC(C(O)C(C)(C)O)OC2C1C1(C)CCC34CC35CCC(OC3CN(C(=O)CN6CCOCC6)CCO3)C(C)(C)C5CCC4C1(C)C2O (stereo not drawn) | – | F (% inhibition of <25%) | –
27 | CC1CC(C(O)C(C)(C)O)OC2C1C1(C)CCC34CC35CCC(OC3CN(C(=O)CC6CCOCC6)CCO3)C(C)(C)C5CCC4C1(C)C2O (stereo not drawn) | F (% inhibition of <25%) | – | –
28 | CC1CC(C(O)C(C)(C)O)OC2C1C1(C)CCC34CC35CCC(OC3CN(C(=O)Cc6ccc(F)cc6)CCO3)C(C)(C)C5CCC4C1(C)C2O (stereo not drawn) | E E (% inhibition of 25-75%) | E E (% inhibition of 25-75%) | –
29 | CC1CC(C(O)C(C)(C)O)OC2C1C1(C)CCC34CC35CCC(OC3CN(C(=O)C6CCCCC6)CCO3)C(C)(C)C5CCC4C1(C)C2O (stereo not drawn) | E (% inhibition of 25-75%) | – | –
30 | CC1CC(C(O)C(C)(C)O)OC2C1C1(C)CCC34CC35CCC(OC3CN(C(=O)C6CC6)CCO3)C(C)(C)C5CCC4C1(C)C2O (stereo not drawn) | E (% inhibition of 25-75%) | – | –
31 | CC1CC(C(O)C(C)(C)O)OC2C1C1(C)CCC34CC35CCC(OC3CN(C(=O)Cc6cc(F)cc(F)c6)CCO3)C(C)(C)C5CCC4C1(C)C2O (stereo not drawn) | E E (% inhibition of 25-75%) | E E (% inhibition of 25-75%) | –
32 | CC1CC(C(O)C(C)(C)O)OC2C1C1(C)CCC34CC35CCC(OC3CN(C(=O)CC6CCC6)CCO3)C(C)(C)C5CCC4C1(C)C2O (stereo not drawn) | E (% inhibition of 25-75%) | F (% inhibition of <25%) | –
33 | CC1CC(C(O)C(C)(C)O)OC2C1C1(C)CCC34CC35CCC(OC3CN(C6CCOCC6)CCO3)C(C)(C)C5CCC4C1(C)C2O (stereo not drawn) | E (% inhibition of 25-75%) | – | –
34 | CC(=O)N1CC(N2CCOC(OC3CCC45CC46CCC4(C)C7C(C)CC(C(O)C(C)(C)O)OC7C(O)C4(C)C6CCC5C3(C)C)C2)C1 (stereo not drawn) | F F (% inhibition of <25%) | F F (% inhibition of <25%) | –
35 | CC1CC(C(O)C(C)(C)O)OC2C1C1(C)CCC34CC35CCC(OC3CN(C6CC6)CCO3)C(C)(C)C5CCC4C1(C)C2O (stereo not drawn) | – | F (% inhibition of <25%) | –
36 | CC1CC(C(O)C(C)(C)O)OC2C1C1(C)CCC34CC35CCC(OC3CN(CCF)CCO3)C(C)(C)C5CCC4C1(C)C2O (stereo not drawn) | – | F (% inhibition of <25%) | –
